Experimental data published in patent US8415475B2, “Antibacterial quinoline derivatives” (Janssen Pharmaceutica N.V., priority 2006, dated 2013).
Values after ≈ are worked out from the molar mass of the structure shown.

Tests used:
[1] = test system: Staphylococcus aureus (ATCC29213); test: In-vitro anti-bacterial microtitre plate assay, IC90, S. aureus; assay type: cell-based; conditions: 90% inhibitory concentration for bacterial growth, resazurin fluorescence; for IC90: Staphylococcus aureus, ATCC29213, 24 h, read-out: IC90 values STA 1 B29213; for IC90 values STA 1 B29213: 24 hours
Method: (§1) D.3. In-Vitro Method for Testing Compounds for Anti-Bacterial Activity Against Various Non-Mycobacterial Strains The bacteria used in this study were grown overnight in flasks containing 100 ml Mueller-Hinton Broth (Becton Dickinson-cat. no. 275730) in sterile de-ionized water, with shaking, at 37° C. Stocks (0.5 ml/tube) were stored at -70° C. until use. Bacteria titrations were performed in microtiter plates to detect the TCID50, in which the TCID50 represents the dilution that gives rise to bacterial growth in 50% of inoculated cultures. In general, an inoculum level of approximately 100 TCID50 was used for susceptibility testing. Flat-bottom, sterile 96-well plastic microtiter plates were filled with 180 μl of sterile deionized water, supplemented with 0.25% BSA. Subsequently, stock solutions (7.8× final test concentration) of compounds were added in 45 μl volumes in column 2. Serial five-fold dilutions (45 μl in 180 μl) were made directly in the microtiter plates from column 2 to reach column 11. Untreated control samples with (column 1) and without (column 12) inoculum were included in each microtiter plate. Depending on the bacteria type, approximately 10 to 60 CFU per well of bacteria inoculum (100 TCID50), in a volume of 100 μl in 2.8× Mueller-Hinton broth medium, was added to the rows […]. The same volume of broth medium without inoculum was added to column 12 in row A to H. The cultures were incubated at 37° C. for 24 hours under a normal atmosphere (incubator with open air valve and continuous ventilation). At the end of incubation, one day after inoculation, the bacterial growth was quantitated fluorometrically. Therefore resazurin (0.6 mg/ml) was added in a volume of 20 μl to all wells 3 hours after inoculation, and the plates were re-incubated overnight. A change in colour from blue to pink indicated the growth of bacteria. The fluorescence was read in a computer-controlled fluorometer (Cytofluor Biosearch) at an excitation wavelength of 530 nm and an emission wavelength of 590 nm. The % growth inhibition achieved by the compounds was calculated according to standard methods.

[2] = test system: Streptococcus pneumoniae (ATCC6305); test: In-vitro anti-bacterial microtitre plate assay, IC90, S. pneumoniae; assay type: cell-based; conditions: 90% inhibitory concentration for bacterial growth, resazurin fluorescence; for IC90 values SPN 1 6305: 24 hours; for IC90: Streptococcus pneumoniae, ATCC6305, 24 h, read-out: IC90 values SPN 1 6305
Method: as §1

M. Smegmatis (ATCC607) = test: In-vitro anti-bacterial activity against strain M. smegmatis ATCC607; assay type: cell-based; conditions: 90% inhibitory concentration for bacterial growth, Alamar Blue fluorescence; for IC90 values MSM 1 ATCC607: 48 hours; for IC90: Mycolicibacterium smegmatis, ATCC607, 48 h, read-out: IC90 values MSM 1 ATCC607
Method: D.2. In-Vitro Method for Testing Compounds for Anti-Bacterial Activity Against Strain M. smegmatis ATCC607. Flat-bottom, sterile 96-well plastic microtiter plates were filled with 180 μl of sterile deionized water, supplemented with 0.25% BSA. Subsequently, stock solutions (7.8× final test concentration) of compounds were added in 45 μl volumes to a series of duplicate wells in column 2 so as to allow evaluation of their effects on bacterial growth. Serial five-fold dilutions (45 μl in 180 μl) were made directly in the microtiter plates from column 2 to 11 using a customised robot system (Zymark Corp., Hopkinton, Mass.). Pipette tips were changed after every 3 dilutions to minimize pipetting errors with high hydrophobic compounds. Untreated control samples with (column 1) and without (column 12) inoculum were included in each microtiter plate. Approximately 250 CFU per well of bacteria inoculum, in a volume of 100 μl in 2.8× Mueller-Hinton broth medium, was added to the rows […]. The same volume of broth medium without inoculum was added to column 12 in row A to H. The cultures were incubated at 37° C. for 48 hours in a humidified 5% CO2 atmosphere (incubator with open air valve and continuous ventilation). At the end of incubation, two days after inoculation, the bacterial growth was quantitated fluorometrically. Therefore Alamar Blue (10×) was added to all wells in a volume of 20 μl and plates were incubated for another 2 hours at […] The fluorescence was read in a computer-controlled fluorometer (Cytofluor, Biosearch) at an excitation wavelength of 530 nm and an emission wavelength of 590 nm (gain 30).

[3] = test system: Enterococcus faecalis (ATCC29212); test: In-vitro anti-bacterial microtitre plate assay, IC90, E. faecalis; assay type: cell-based; conditions: 90% inhibitory concentration for bacterial growth, resazurin fluorescence; for IC90: Enterococcus faecalis, ATCC29212, 24 h, read-out: IC90 values EFA 29212; for IC90 values EFA 29212: 24 hours
Method: as §1

[4] = test system: Streptococcus pyogens (ATCC8668); test: In-vitro anti-bacterial microtitre plate assay, IC90, S. pyogens; assay type: cell-based; conditions: 90% inhibitory concentration for bacterial growth, resazurin fluorescence; for IC90: Streptococcus, ATCC8668, 24 h, read-out: IC90 values SPY 8668; for IC90 values SPY 8668: 24 hours
Method: as §1

[5] = test system: Escherichia coli (ATCC35218); test: In-vitro anti-bacterial microtitre plate assay, IC90, E. coli; assay type: cell-based; conditions: 90% inhibitory concentration for bacterial growth, resazurin fluorescence; for IC90: Escherichia coli, ATCC35218, 24 h, read-out: IC90 values ECO 35218; for IC90 values ECO 35218: 24 hours
Method: as §1

[6] = test system: Mycobacterium tuberculosis (strain H37RV); test: In-vitro method for testing compounds against M. tuberculosis; assay type: cell-based; conditions: 90% inhibitory concentration for bacterial growth, 7 days, Middlebrook broth, resazurin fluorescence; for IC90: Mycobacterium tuberculosis, H37RV, 168 h, read-out: IC90 values MTB 1 H37RV
[7] = test system: Pseudomonas aeruginosa (ATCC27853); test: In-vitro anti-bacterial microtitre plate assay, IC90, P. aeruginosa; assay type: cell-based; conditions: 90% inhibitory concentration for bacterial growth, resazurin fluorescence; for IC90: Pseudomonas aeruginosa, ATCC27853, 24 h, read-out: IC90 values PAE 27853; for IC90 values PAE 27853: 24 hours
Method: as §1

| Structure (SMILES) | IC90 [1] [µg/mL] | IC90 values SPN 1 6305 [2] [µg/mL] | IC90 values MSM 1 ATCC607 (M. Smegmatis (ATCC607)) [µg/mL] | IC90 [3] [µg/mL] | IC90 [4] [µg/mL] | IC90 [5] [µg/mL] | IC90 values STA 1 B29213 [1] [µg/mL] | IC90 [6] [µg/mL] | IC90 [7] [µg/mL] | IC90 values EFA 29212 [3] [µg/mL] | IC90 values SPY 8668 [4] [µg/mL] | melting point [°C] | IC90 values MTB 1 H37RV [6] [µg/mL] | IC90 (M. Smegmatis (ATCC607)) [µg/mL] | IC90 values PAE 27853 [7] [µg/mL] | IC90 values ECO 35218 [5] [µg/mL] | IC90 [2] [µg/mL] |
| --- | --- | --- | --- | --- | --- | --- | --- | --- | --- | --- | --- | --- | --- | --- | --- | --- | --- |
| COc1nc2ccc(N3CCOCC3)cc2cc1C(c1ccccc1)C(O)(CCN(C)C)c1ccccc1 (single isomer, unassigned) [Compound 5] | 40.6 (≈ 79.3 µM) | 9.1 (≈ 17.8 µM) | 0.04 (≈ 0.0782 µM) | 40.6 (≈ 79.4 µM) | 40.6 (≈ 79.4 µM) | 51.2 (≈ 100 µM) | – | – | – | – | – | – | – | – | – | – | – |
| C=Cc1ccc2nc(OC)c(C(c3ccccc3)C(O)(CCN(C)C)c3cccc4ccccc34)cc2c1 (single isomer, unassigned) [Compound 8] | – | 2.0 (≈ 3.98 µM) | – | 50.3 (≈ 100 µM) | 50.3 (≈ 100 µM) | 50.3 (≈ 100 µM) | 50.3 (≈ 100 µM) | 3.6 (≈ 7.16 µM) | 44.8 (≈ 89.1 µM) | – | – | – | – | – | – | – | – |
| C/C=C/c1ccc2nc(OC)c(C(c3ccccc3)C(O)(CCN(C)C)c3cccc4ccccc34)cc2c1 (single isomer, unassigned) [Compound 11] | – | 1.8 (≈ 3.48 µM) | 0.01 (≈ 0.0194 µM) | – | – | – | 51.7 (≈ 100 µM) | – | 51.7 (≈ 100 µM) | 51.67 (≈ 100 µM) | 51.67 (≈ 100 µM) | 190 | – | – | – | – | – |
| COc1nc2ccc(N)cc2cc1C(c1ccccc1)C(O)(CCN(C)C)c1cccc2ccccc12 (single isomer, unassigned) [Compound 15] | – | 7.8 (≈ 15.9 µM) | 0.3 (≈ 0.61 µM) | – | – | – | 7.8 (≈ 15.9 µM) | – | – | – | – | 205 | 1.6 (≈ 3.25 µM) | – | – | – | – |
| COc1nc2ccc(/C=N/O)cc2cc1C(c1ccccc1)C(O)(CCN(C)C)c1cccc2ccccc12 (single isomer, unassigned) [Compound 23] | – | 0.3 (≈ 0.577 µM) | 0.3 (≈ 0.577 µM) | 18.4 (≈ 35.5 µM) | 8.24 (≈ 15.9 µM) | 52 (≈ 100 µM) | 6.5 (≈ 12.5 µM) | 7.3 (≈ 14 µM) | 8.24 (≈ 15.9 µM) | – | – | 187 | – | – | – | – | – |
| CO/N=C/c1ccc2nc(OC)c(C(c3ccccc3)C(O)(CCN(C)C)c3cccc4ccccc34)cc2c1 (single isomer, unassigned) [Compound 25] | – | 2.1 (≈ 3.94 µM) | – | – | – | 53.4 (≈ 100 µM) | 8.5 (≈ 15.9 µM) | – | – | 8.46 (≈ 15.9 µM) | 8.46 (≈ 15.9 µM) | 228 | 1.7 (≈ 3.19 µM) | 0.3 (≈ 0.562 µM) | 8.46 (≈ 15.9 µM) | – | – |
| CO/N=C/c1ccc2nc(OC)c(C(c3ccccc3)C(O)(CCN(C)C)c3cccc4ccccc34)cc2c1 (single isomer, unassigned) [Compound 26] | – | 18.9 (≈ 35.4 µM) | 0.3 (≈ 0.562 µM) | – | – | – | 53.4 (≈ 100 µM) | – | – | 53.37 (≈ 100 µM) | 53.37 (≈ 100 µM) | 170 | 8.5 (≈ 15.9 µM) | – | 53.37 (≈ 100 µM) | 53.37 (≈ 100 µM) | – |
| COc1nc2ccc(CNC(C)=O)cc2cc1C(c1ccccc1)C(O)(CCN(C)C)c1cccc2ccccc12 (single isomer, unassigned) [Compound 27] | 34.6 (≈ 63.2 µM) | – | – | – | – | – | – | 21.8 (≈ 39.8 µM) | – | – | – | 203 | – | 4.4 (≈ 8.03 µM) | – | – | 8.7 (≈ 15.9 µM) |
| COc1nc2ccc(N3CCOCC3)cc2cc1C(c1ccccc1)C(O)(CCN(C)C)c1cccc2ccccc12 (single isomer, unassigned) [Compound 30] | 44.6 (≈ 79.4 µM) | – | – | 44.6 (≈ 79.4 µM) | 44.6 (≈ 79.4 µM) | 56.2 (≈ 100 µM) | – | 8.9 (≈ 15.8 µM) | 22.4 (≈ 39.8 µM) | – | – | 210 | – | 0.1 (≈ 0.178 µM) | – | – | 14.1 (≈ 25.1 µM) |
| COc1nc2ccc(C(=O)N3CCN(C)CC3)cc2cc1C(c1ccccc1)C(O)(CCN(C)C)c1cccc2ccccc12 (single isomer, unassigned) [Compound 31] | 38 (≈ 63 µM) | – | – | – | – | – | – | 4.8 (≈ 7.96 µM) | – | – | – | 195 | – | 0.4 (≈ 0.664 µM) | – | – | 10.7 (≈ 17.8 µM) |
| COc1nc2ccc(N3CCOCC3)cc2cc1C(c1ccccc1)C(O)(CCN(C)C)c1ccccc1 (single isomer, unassigned) [Compound 36] | – | 51.2 (≈ 100 µM) | 8.1 (≈ 15.8 µM) | – | – | – | 51.2 (≈ 100 µM) | – | – | 51.2 (≈ 100 µM) | 40.6 (≈ 79.3 µM) | 190 | – | – | – | 51.2 (≈ 100 µM) | – |
| C=Cc1ccc2nc(OC)c(C(c3ccccc3)C(O)(CCN(C)C)c3cccc4ccccc34)cc2c1 (stereo not drawn) [Compound 9] | 50.3 (≈ 100 µM) | – | – | 50.3 (≈ 100 µM) | 50.3 (≈ 100 µM) | 50.3 (≈ 100 µM) | – | 0.2 (≈ 0.398 µM) | 50.3 (≈ 100 µM) | – | – | – | – | 0.003 (≈ 0.00597 µM) | – | – | 0.3 (≈ 0.597 µM) |
| COc1nc2ccc(CN)cc2cc1C(c1ccccc1)C(O)(CCN(C)C)c1cccc2ccccc12 (stereo not drawn) [Compound 18] | – | 3.6 (≈ 7.12 µM) | 0.4 (≈ 0.791 µM) | – | – | – | 8.0 (≈ 15.8 µM) | – | – | 17.94 (≈ 35.5 µM) | 6.37 (≈ 12.6 µM) | – | 1.6 (≈ 3.16 µM) | – | 8.01 (≈ 15.8 µM) | 8.01 (≈ 15.8 µM) | – |
| COc1nc2ccc(CN)cc2cc1C(c1ccccc1)C(O)(CCN(C)C)c1cccc2ccccc12 (stereo not drawn) [Compound 19] | 8 (≈ 15.8 µM) | – | 1.6 (≈ 3.16 µM) | – | 8.01 (≈ 15.8 µM) | – | – | – | 8.01 (≈ 15.8 µM) | 40.17 (≈ 79.4 µM) | – | – | 8.0 (≈ 15.8 µM) | – | – | 40.17 (≈ 79.4 µM) | 1.8 (≈ 3.56 µM) |
